Test results: ChEMBL document CHEMBL6153076, “Discovery of novel JQ1 derivatives as dual ferroptosis and apoptosis inducers for the treatment of triple-negative breast cancer” (Eur J Med Chem, 2025)
Activity calls are given as the source filed them. No cut-off for these calls is given here.

How the values were obtained:
[1] = Cytotoxicity against human MCF-10A cells assessed as inhibition of cell proliferation incubated for 72 hrs by MTT assay; format: toxicity, cell-based
MDA-MB-231 [2] = assay: Downregulation of BRD4 expression in human MDA-MB-231 cells by Western blot analysis; format: functional, cell-based; details: dose 0.2-5 µM
[3] = biological target: Bromodomain-containing protein 4 (Homo sapiens, UniProt O60885); assay: Inhibition of BRD4 (unknown origin) incubated for 120 mins by TR-FRET assay
MDA-MB-231 [4] = assay: Downregulation of GPX4 expression in human MDA-MB-231 cells by Western blot analysis; format: functional, cell-based; details: dose 0.2-5 µM
MDA-MB-231 [5] = assay: Induction of ferroptosis in human MDA-MB-231 cells assessed as increase in intracellular LPO accumulation incubated for 48 hrs by confocal laser scanning microscopic analysis; format: functional, cell-based; details: dose 0.2-5 µM
MDA-MB-231 [6] = assay: Induction of ferroptosis in human MDA-MB-231 cells assessed as increase in intracellular MDA accumulation incubated for 48 hrs; format: functional, cell-based; details: dose 0.2-5 µM
MDA-MB-231 [7] = assay: Induction of ferroptosis in human MDA-MB-231 cells assessed as decrease in GSH level incubated for 48 hrs; format: functional, cell-based; details: dose 0.2-5 µM
MDA-MB-231 [8] = assay: Induction of ferroptosis in human MDA-MB-231 cells assessed as increase in intracellular Fe2+ level at 0.2 to 5 uM incubated for 48 hrs by FerroOrange staining based flow cytometry analysis; format: functional, cell-based; details: dose 0.2-5 µM
MDA-MB-231 [9] = assay: Downregulation of SLC3A2 expression in human MDA-MB-231 cells; format: functional, cell-based; details: dose 0.2-5 µM
MDA-MB-231 [10] = assay: Downregulation of SLC7A11 expression in human MDA-MB-231 cells; format: functional, cell-based; details: dose 0.2-5 µM
MDA-MB-231 [11] = assay: Downregulation of FSP1 expression in human MDA-MB-231 cells; format: functional, cell-based; details: dose 0.2-5 µM
MDA-MB-231 [12] = assay: Downregulation of FTH1 expression in human MDA-MB-231 cells; format: functional, cell-based; details: dose 0.2-5 µM
MDA-MB-231 [13] = assay: Downregulation of NRF2 expression in human MDA-MB-231 cells at 0.2 to 5 uM; format: functional, cell-based; details: dose 0.2-5 µM
MDA-MB-231 [14] = assay: Downregulation of HO-1 expression in human MDA-MB-231 cells at 0.2 to 5 uM; format: functional, cell-based; details: dose 0.2-5 µM
MDA-MB-231 [15] = assay: Induction of apoptosis in human MDA-MB-231 cells assessed as viable cells at 0.2 uM incubated for 48 hrs by Annexin V/PI staining based flow cytometry analysis (reference value: 97.85%); format: functional; details: read-out: Activity
MDA-MB-231 [16] = assay: Induction of apoptosis in human MDA-MB-231 cells assessed as early apoptotic cells at 0.2 uM incubated for 48 hrs by Annexin V/PI staining based flow cytometry analysis (reference value: 0.80%); format: functional
MDA-MB-231 [17] = assay: Induction of apoptosis in human MDA-MB-231 cells assessed as late apoptotic cells at 0.2 uM incubated for 48 hrs by Annexin V/PI staining based flow cytometry analysis (reference value: 0.14%); format: functional
MDA-MB-231 [18] = assay: Induction of apoptosis in human MDA-MB-231 cells assessed as necrotic cells at 0.2 uM incubated for 48 hrs by Annexin V/PI staining based flow cytometry analysis (reference value: 0.03%); format: functional
MDA-MB-231 [19] = assay: Induction of apoptosis in human MDA-MB-231 cells assessed as viable cells at 1 uM incubated for 48 hrs by Annexin V/PI staining based flow cytometry analysis (reference value: 97.85%); format: functional; details: read-out: Activity
MDA-MB-231 [20] = assay: Induction of apoptosis in human MDA-MB-231 cells assessed as early apoptotic cells at 1 uM incubated for 48 hrs by Annexin V/PI staining based flow cytometry analysis (reference value: 0.80%); format: functional
MDA-MB-231 [21] = assay: Induction of apoptosis in human MDA-MB-231 cells assessed as late apoptotic cells at 1 uM incubated for 48 hrs by Annexin V/PI staining based flow cytometry analysis (reference value: 0.14%); format: functional
MDA-MB-231 [22] = assay: Induction of apoptosis in human MDA-MB-231 cells assessed as necrotic cells at 1 uM incubated for 48 hrs by Annexin V/PI staining based flow cytometry analysis (reference value: 0.03%); format: functional
MDA-MB-231 [23] = assay: Induction of apoptosis in human MDA-MB-231 cells assessed as viable cells at 5 uM incubated for 48 hrs by Annexin V/PI staining based flow cytometry analysis (reference value: 97.85%); format: functional; details: read-out: Activity
MDA-MB-231 [24] = assay: Induction of apoptosis in human MDA-MB-231 cells assessed as early apoptotic cells at 5 uM incubated for 48 hrs by Annexin V/PI staining based flow cytometry analysis (reference value: 0.80%); format: functional
MDA-MB-231 [25] = assay: Induction of apoptosis in human MDA-MB-231 cells assessed as late apoptotic cells at 5 uM incubated for 48 hrs by Annexin V/PI staining based flow cytometry analysis (reference value: 0.14%); format: functional
MDA-MB-231 [26] = assay: Induction of apoptosis in human MDA-MB-231 cells assessed as necrotic cells at 5 uM incubated for 48 hrs by Annexin V/PI staining based flow cytometry analysis (reference value: 0.03%); format: functional
MDA-MB-231 [27] = assay: Induction of apoptosis in human MDA-MB-231 cells assessed as upregulation of Bax expression at 0.2 to 5 uM; format: functional, cell-based; details: dose 0.2-5 µM
MDA-MB-231 [28] = assay: Induction of apoptosis in human MDA-MB-231 cells assessed as upregulation of C-myc expression at 0.2 to 5 uM; format: functional, cell-based; details: dose 0.2-5 µM
MDA-MB-231 [29] = assay: Induction of apoptosis in human MDA-MB-231 cells assessed as […] expression at 0.2 to 5 uM; format: functional, cell-based; details: dose 0.2-5 µM
MDA-MB-231 [30] = assay: Induction of cell cycle arrest in human MDA-MB-231 cells assessed as accumulation of cells at G0/G1 phase at 0.2 uM incubated for 48 hrs by propidium iodide staining flow cytometric analysis (reference value: 64.56 %); format: functional
MDA-MB-231 [31] = assay: Induction of cell cycle arrest in human MDA-MB-231 cells assessed as accumulation of cells at G2/M phase at 0.2 uM incubated for 48 hrs by propidium iodide staining flow cytometric analysis (reference value: 8.69%); format: functional
MDA-MB-231 [32] = assay: Induction of cell cycle arrest in human MDA-MB-231 cells assessed as accumulation of cells at S phase at 0.2 uM incubated for 48 hrs by propidium iodide staining flow cytometric analysis (reference value: 26.75%); format: functional
MDA-MB-231 [33] = assay: Induction of cell cycle arrest in human MDA-MB-231 cells assessed as accumulation of cells at G0/G1 phase at 1 uM incubated for 48 hrs by propidium iodide staining flow cytometric analysis (reference value: 64.56 %); format: functional
MDA-MB-231 [34] = assay: Induction of cell cycle arrest in human MDA-MB-231 cells assessed as accumulation of cells at G2/M phase at 1 uM incubated for 48 hrs by propidium iodide staining flow cytometric analysis (reference value: 8.69%); format: functional
MDA-MB-231 [35] = assay: Induction of cell cycle arrest in human MDA-MB-231 cells assessed as accumulation of cells at S phase at 1 uM incubated for 48 hrs by propidium iodide staining flow cytometric analysis (reference value: 26.75%); format: functional
MDA-MB-231 [36] = assay: Induction of cell cycle arrest in human MDA-MB-231 cells assessed as accumulation of cells at G0/G1 phase at 5 uM incubated for 48 hrs by propidium iodide staining flow cytometric analysis (reference value: 64.56 %); format: functional
MDA-MB-231 [37] = assay: Induction of cell cycle arrest in human MDA-MB-231 cells assessed as accumulation of cells at G2/M phase at 5 uM incubated for 48 hrs by propidium iodide staining flow cytometric analysis (reference value: 8.69%); format: functional
MDA-MB-231 [38] = assay: Induction of cell cycle arrest in human MDA-MB-231 cells assessed as accumulation of cells at S phase at 5 uM incubated for 48 hrs by propidium iodide staining flow cytometric analysis (reference value: 26.75%); format: functional
MDA-MB-231 [39] = assay: Anti-metastatic activity in human MDA-MB-231 cells assessed as inhibition of cell migration incubated for 24 hrs by inverted microscopic analysis; format: functional, cell-based; details: dose 0.2-5 µM
MDA-MB-231 [40] = assay: Antitumor activity against human MDA-MB-231 cells xenografted in nude mouse assessed as suppression of tumor growth at 50 mg/kg, ip administered daily for 21 days; format: functional, organism-based; details: time 21.0 day
[41] = Toxicity in nude mouse xenografted with human MDA-MB-231 cells at 50 mg/kg, ip administered daily for 21 days; format: organism-based; details: in vivo, 504 h, time 21 day
MDA-MB-231 [42] = assay: Antitumor activity against human MDA-MB-231 cells xenografted in nude mouse assessed as tumor growth inhibition at 50 mg/kg, ip administered daily for 21 days; format: functional; details: MDA-MB-231, 504 h, time 21 day, read-out: TGI
MDA-MB-231 [43] = assay: cells; details: Homo sapiens, MDA-MB-231, 72 h
Description: Antiproliferative activity against human MDA-MB-231 cells assessed as inhibition of cell proliferation incubated for 72 hrs by MTT assay

BT-549 = assay: cells; details: Homo sapiens, BT-549, 72 h
Description: Antiproliferative activity against human BT-549 cells assessed as inhibition of cell proliferation incubated for 72 hrs by MTT assay

**Q.** For `Cc1sc2c(c1C)C(c1ccc(Cl)cc1)=N[C@@H](CC(=O)NC1CCN(C(=O)CCl)CC1)c1nnc(C)n1-2`, which IC50 at 72 h [1] is on record?
**A.** 2560 nM

**Q.** What about the Activity (MDA-MB-231 [2]) of the same molecule?
**A.** Dose-dependent-effect

**Q.** What about the IC50 [3] of the same molecule?
**A.** 331 nM

**Q.** What about the Activity (MDA-MB-231 [4]) of the same molecule?
**A.** Dose-dependent-effect

**Q.** And the Activity (MDA-MB-231 [5])?
**A.** Dose-dependent-effect

**Q.** And the Activity (MDA-MB-231 [6])?
**A.** Dose-dependent-effect

**Q.** What about the Activity (MDA-MB-231 [7]) of the same molecule?
**A.** Dose-dependent-effect

**Q.** What about the Activity (MDA-MB-231 [8]) of the same molecule?
**A.** Active

**Q.** And the Activity (MDA-MB-231 [9])?
**A.** Dose-dependent-effect

**Q.** What about the Activity (MDA-MB-231 [10]) of the same molecule?
**A.** Dose-dependent-effect

**Q.** And the Activity (MDA-MB-231 [11])?
**A.** Dose-dependent-effect

**Q.** And the Activity (MDA-MB-231 [12])?
**A.** Dose-dependent-effect

**Q.** And the Activity (MDA-MB-231 [13])?
**A.** Active

**Q.** And the Activity (MDA-MB-231 [14])?
**A.** Active

**Q.** What about the viability at 0.2 µM (MDA-MB-231 [15]) of the same molecule?
**A.** 88%

**Q.** What about the Activity (MDA-MB-231 [16]) of the same molecule?
**A.** 6.1%

**Q.** What about the Activity (MDA-MB-231 [17]) of the same molecule?
**A.** 5.14%

**Q.** What about the Activity (MDA-MB-231 [18]) of the same molecule?
**A.** 0.68%

**Q.** And the viability at 1 µM (MDA-MB-231 [19])?
**A.** 72.5%

**Q.** What about the Activity (MDA-MB-231 [20]) of the same molecule?
**A.** 16.51%

**Q.** What about the Activity (MDA-MB-231 [21]) of the same molecule?
**A.** 9.51%

**Q.** What about the Activity (MDA-MB-231 [22]) of the same molecule?
**A.** 1.44%

**Q.** And the viability at 5 µM (MDA-MB-231 [23])?
**A.** 59.7%

**Q.** And the Activity (MDA-MB-231 [24])?
**A.** 18.2%

**Q.** And the Activity (MDA-MB-231 [25])?
**A.** 21.27%

**Q.** What about the Activity (MDA-MB-231 [26]) of the same molecule?
**A.** 0.7%

**Q.** What about the Activity (MDA-MB-231 [27]) of the same molecule?
**A.** Active

**Q.** And the Activity (MDA-MB-231 [28])?
**A.** Active

**Q.** What about the Activity (MDA-MB-231 [29]) of the same molecule?
**A.** Active

**Q.** What about the Activity (MDA-MB-231 [30]) of the same molecule?
**A.** 60.87%

**Q.** What about the Activity (MDA-MB-231 [31]) of the same molecule?
**A.** 10.25%

**Q.** What about the Activity (MDA-MB-231 [32]) of the same molecule?
**A.** 28.88%

**Q.** What about the Activity (MDA-MB-231 [33]) of the same molecule?
**A.** 53.71%

**Q.** And the Activity (MDA-MB-231 [34])?
**A.** 15.47%

**Q.** And the Activity (MDA-MB-231 [35])?
**A.** 30.62%

**Q.** What about the Activity (MDA-MB-231 [36]) of the same molecule?
**A.** 42.44%

**Q.** What about the Activity (MDA-MB-231 [37]) of the same molecule?
**A.** 25.39%

**Q.** What about the Activity (MDA-MB-231 [38]) of the same molecule?
**A.** 32.17%

**Q.** And the Activity (MDA-MB-231 [39])?
**A.** Dose-dependent-effect

**Q.** What about the Activity (MDA-MB-231 [40]) of the same molecule?
**A.** Active

**Q.** What about the Activity [41] of the same molecule?
**A.** Non-toxic

**Q.** And the inhibition in vivo at 50 mg/kg (MDA-MB-231 [42])?
**A.** 51.4%

**Q.** What about the IC50 (MDA-MB-231 [43]) of the same molecule?
**A.** 490 nM

**Q.** What about the IC50 (BT-549) of the same molecule?
**A.** 520 nM
